Laboratory results: patent publication US20240099304A1, “SYNERGISTIC HERBICIDAL COMPOSITIONS OF METAMIFOP” (Parijat Industries (India) Private Limited, priority 2021, published 2024)

What was measured:
Format in all cases: in vivo
Brachiaria eruciformis = test: Field efficacy on grass weed in soybean, post-emergence foliar application
Method: (§1) As described in the Herbicide Handbook of the Weed Science Society of America, Ninth Edition, 2007, p. 429, “synergism” [is] an interaction of two or more factors such that the effect when combined is greater than the predicted effect based on the response to each factor applied separately. In the Colby method, the expected (or predicted) response of a combination of herbicides is calculated by taking the product of the observed response for each individual component of the combination when applied alone divided by 100 and subtracting this value from the sum of the observed response for each component while applied alone. An unexpected enhancement in efficacy of the combination is then determined by comparing the observed response of the combination to the expected (or predicted) response as calculated from the observed response of each individual component alone. If the observed response of the combination is greater than the expected (or predicted) response, or stated conversely, if the difference between the observed and expected response is greater than zero, then the combination is said to be synergistic or unexpectedly effective. (Colby, S. R., Weeds, 1967(15), p. 20-22). The Colby method required only a single dose of each herbicide applied alone and the mixture of both doses.
(§2) Synergy Study: The following formula was used to calculate the expected activity of mixtures containing active ingredients, A and B:
(§3) • A=Observed efficacy of active ingredient (combination of Metamifop and Imidazolinone herbicides) A at the same concentration as used in the mixture. • B=observed efficacy of active ingredient B at the same concentration as used in the mixture. However, following formula was used to calculate the expected activity of mixtures containing three active ingredients, A, B and C:
(§4) • A=observed efficacy of active ingredient (combination of Metamifop and Imidazolinone herbicides) A at the same concentration as used in the mixture. • B=observed efficacy of active ingredient B at the same concentration as used in the mixture. • C=observed efficacy of active ingredient C at the same concentration as used in the mixture.
(§5) EFFICACY STUDY: The field experiments were carried out to test the synergy of the combination Metamifop, Imazethapyr, and Imazamox in India at various locations like in MP, Maharashtra, Karnataka, and Telangana on farmer's field against soybean weeds during Kharif season. The experiment comprising of 15 treatments including premixed binary and ternary combinations along with their stand-alone molecule using a randomized block design replicated thrice. All the treatments were applied as post-emergence foliar application when the weeds reached to two to four leaf stage. The spray was conducted with the help of Battery-operated Knapsack sprayer. The percentage efficacy was calculated after 14 and 21 days after application of herbicides.
(§6) The weeds present in the experimental fields were echinochloa conola, echinochloa crusgalli, brachiaria euriciformis, rottboellia cochinchinensis, cynodon dactylon, parthenium hyterophorus, digera arvensis, cynotis axillaris, acalypha indica, Commelina benghalensis, celosia argentia, cyperus spp.

Echinochloa crusgalli = test: as above
Method: as §1, §2, §3, §4, §5, §6

[1] = tested on: Rottboellia cochinchinensis; test: as above
Method: as §1, §2, §3, §4, §5, §6

Commelina benghalensis = test: Field efficacy on broad leaf weed in soybean, post-emergence foliar application
Method: as §1, §2, §3, §4, §5, §6

Cyanotis axillaris = test: as above
Method: as §1, §2, §3, §4, §5, §6

Parthenium hysterophorus = test: as above
Method: as §1, §2, §3, §4, §5, §6

Soybean = test: Phytotoxicity in Soybean, visual grading on 0-10 scale; set-up: key: visual phytotoxicity grade on 0-10 scale; settings: Soybean
Method: as §5
Phytotoxic effect of herbicidal combination of Metamifop, Imazethapyr and Imazamox in soyabean: Table 5, 10 show the visual observations and grading on phytotoxicity which was recorded for leaf injury on tip/surface, Epinasty/Hyponasty, and wilting etc. on 0-10 scale (as below) at 1, 3, 7, 14 and 21 days after application of the present herbicidal composition.

[2] = tested on: hard to kill broad leaf weeds; test: Field efficacy, summary on broad leaf weeds
Method: as §1, §5

## COCc1cnc(C2=NC(C)(C(C)C)C(=O)N2)c(C(=O)O)c1 (centres unmarked) [Imazamox]
Brachiaria eruciformis; 14 DAA, Imazamox 20 gm ai/ha
  % Weed control burn down symptoms generation Observed: 0%
Brachiaria eruciformis; 14 DAA, Imazamox 30 gm ai/ha
  % Weed control burn down symptoms generation Observed: 0%
Brachiaria eruciformis; 14 DAA, Imazamox 35 gm ai/ha
  % Weed control burn down symptoms generation Observed: 0%
Brachiaria eruciformis; 21 DAA, Imazamox 20 gm ai/ha
  % Weed control burn down symptoms generation Observed: 0%
Brachiaria eruciformis; 21 DAA, Imazamox 30 gm ai/ha
  % Weed control burn down symptoms generation Observed: 0%
Brachiaria eruciformis; 21 DAA, Imazamox 35 gm ai/ha
  % Weed control burn down symptoms generation Observed: 0%
Echinochloa crusgalli; 14 DAA, Imazamox 20 gm ai/ha
  % Weed control burn down symptoms generation Observed: 0%
Echinochloa crusgalli; 14 DAA, Imazamox 30 gm ai/ha
  % Weed control burn down symptoms generation Observed: 0%
Echinochloa crusgalli; 14 DAA, Imazamox 35 gm ai/ha
  % Weed control burn down symptoms generation Observed: 0%
Echinochloa crusgalli; 21 DAA, Imazamox 20 gm ai/ha
  % Weed control burn down symptoms generation Observed: 0%
Echinochloa crusgalli; 21 DAA, Imazamox 30 gm ai/ha
  % Weed control burn down symptoms generation Observed: 0%
Echinochloa crusgalli; 21 DAA, Imazamox 35 gm ai/ha
  % Weed control burn down symptoms generation Observed: 0%
[1]; 14 DAA, Imazamox 20 gm ai/ha
  % Weed control burn down symptoms generation Observed: 0%
[1]; 14 DAA, Imazamox 30 gm ai/ha
  % Weed control burn down symptoms generation Observed: 0%
[1]; 14 DAA, Imazamox 35 gm ai/ha
  % Weed control burn down symptoms generation Observed: 0%
[1]; 21 DAA, Imazamox 20 gm ai/ha
  % Weed control burn down symptoms generation Observed: 0%
[1]; 21 DAA, Imazamox 30 gm ai/ha
  % Weed control burn down symptoms generation Observed: 0%
[1]; 21 DAA, Imazamox 35 gm ai/ha
  % Weed control burn down symptoms generation Observed: 0%
Commelina benghalensis; 14 DAA, Imazamox 20 gm ai/ha
  % Weed control burn down symptoms generation Observed: 0%
Commelina benghalensis; 14 DAA, Imazamox 30 gm ai/ha
  % Weed control burn down symptoms generation Observed: 4%
Commelina benghalensis; 14 DAA, Imazamox 35 gm ai/ha
  % Weed control burn down symptoms generation Observed: 6%
Commelina benghalensis; 21 DAA, Imazamox 20 gm ai/ha
  % Weed control burn down symptoms generation Observed: 0%
Commelina benghalensis; 21 DAA, Imazamox 30 gm ai/ha
  % Weed control burn down symptoms generation Observed: 0%
Commelina benghalensis; 21 DAA, Imazamox 35 gm ai/ha
  % Weed control burn down symptoms generation Observed: 0%
Cyanotis axillaris; 14 DAA, Imazamox 20 gm ai/ha
  % Weed control burn down symptoms generation Observed: 0%
Cyanotis axillaris; 14 DAA, Imazamox 30 gm ai/ha
  % Weed control burn down symptoms generation Observed: 0%
Cyanotis axillaris; 14 DAA, Imazamox 35 gm ai/ha
  % Weed control burn down symptoms generation Observed: 0%
Cyanotis axillaris; 21 DAA, Imazamox 20 gm ai/ha
  % Weed control burn down symptoms generation Observed: 0%
Cyanotis axillaris; 21 DAA, Imazamox 30 gm ai/ha
  % Weed control burn down symptoms generation Observed: 0%
Cyanotis axillaris; 21 DAA, Imazamox 35 gm ai/ha
  % Weed control burn down symptoms generation Observed: 0%
Parthenium hysterophorus; 14 DAA, Imazamox 20 gm ai/ha
  % Weed control burn down symptoms generation Observed: 0%
Parthenium hysterophorus; 14 DAA, Imazamox 30 gm ai/ha
  % Weed control burn down symptoms generation Observed: 0%
Parthenium hysterophorus; 14 DAA, Imazamox 35 gm ai/ha
  % Weed control burn down symptoms generation Observed: 0%
Parthenium hysterophorus; 21 DAA, Imazamox 20 gm ai/ha
  % Weed control burn down symptoms generation Observed: 0%
Parthenium hysterophorus; 21 DAA, Imazamox 30 gm ai/ha
  % Weed control burn down symptoms generation Observed: 0%
Parthenium hysterophorus; 21 DAA, Imazamox 35 gm ai/ha
  % Weed control burn down symptoms generation Observed: 0%
Soybean; 1 DAA, Imazamox 20 gm ai/ha
  Phytotoxicity score: 0
Soybean; 1 DAA, Imazamox 30 gm ai/ha
  Phytotoxicity score: 0
Soybean; 1 DAA, Imazamox 35 gm ai/ha
  Phytotoxicity score: 0
Soybean; 3 DAA, Imazamox 20 gm ai/ha
  Phytotoxicity score: 0
Soybean; 3 DAA, Imazamox 30 gm ai/ha
  Phytotoxicity score: 0
Soybean; 3 DAA, Imazamox 35 gm ai/ha
  Phytotoxicity score: 0
Soybean; 7 DAA, Imazamox 20 gm ai/ha
  Phytotoxicity score: 0
Soybean; 7 DAA, Imazamox 30 gm ai/ha
  Phytotoxicity score: 0
Soybean; 7 DAA, Imazamox 35 gm ai/ha
  Phytotoxicity score: 0
Soybean; 14 DAA, Imazamox 20 gm ai/ha
  Phytotoxicity score: 0
Soybean; 14 DAA, Imazamox 30 gm ai/ha
  Phytotoxicity score: 0
Soybean; 14 DAA, Imazamox 35 gm ai/ha
  Phytotoxicity score: 0
Soybean; 21 DAA, Imazamox 20 gm ai/ha
  Phytotoxicity score: 0
Soybean; 21 DAA, Imazamox 30 gm ai/ha
  Phytotoxicity score: 0
Soybean; 21 DAA, Imazamox 35 gm ai/ha
  Phytotoxicity score: 0
[2]; at 14 days
  Control on targeted weeds, applied alone: no or very less control
[2]; at 21 days
  Control on targeted weeds, applied alone: no or very less control
